Experimental data: ChEMBL document CHEMBL1201862, “PubChem BioAssay data set” (2004)
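Cells were grown in 96-well plates and exposed to each compound for 48 hours at five concentrations; endpoints were interpolated linearly between bracketing concentrations, or set to the highest concentration if not reached. Abbreviation: GI50, concentration required for 50% inhibition of growth.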 Activity calls are given as the source filed them. No stated cut-off is given here; in the data, active = GI50 up to about 1.1 µM and inactive = higher.

Experiments:
Experiment in all cases: NCI-60 cell line screen, 48 h
OVCAR-4 = test system: OVCAR-4
SR = test system: SR
HCT-15 = test system: HCT-15
OVCAR-8 = test system: OVCAR-8
NCI-H226 = test system: NCI-H226
HL-60 = test system: HL-60
786-0 = test system: 786-0
COLO 205 = test system: COLO 205
UACC-257 = test system: UACC-257
SW-620 = test system: SW-620
MOLT-4 = test system: MOLT-4
LOX IMVI = test system: LOX IMVI
SF-539 = test system: SF-539
SK-MEL-5 = test system: SK-MEL-5
OVCAR-5 = test system: OVCAR-5
XF498 = test system: XF498
CCRF-CEM = test system: CCRF-CEM

Row | Structure (SMILES) | GI50 (OVCAR-4) | GI50 (SR) | GI50 (HCT-15) [µM] | GI50 (OVCAR-8) | GI50 (NCI-H226) | GI50 (HL-60) | GI50 (786-0) | GI50 (COLO 205) | GI50 (UACC-257) | GI50 (SW-620) | GI50 (MOLT-4) | GI50 (LOX IMVI) | GI50 (SF-539) | GI50 (SK-MEL-5) | GI50 (OVCAR-5) | GI50 (XF498) | GI50 (CCRF-CEM)
1 | Cn1c(=O)nc2n(-c3cc(C(F)(F)F)cc(C(F)(F)F)c3)c3ccccc3nc-2c1=O | 40.3 µM (inactive) | > 100 µM (inactive) | > 100 | > 100 µM (inactive) | > 100 µM (inactive) | > 100 µM (inactive) | > 100 µM (inactive) | > 100 µM (inactive) | > 100 µM (inactive) | > 100 µM (inactive) | > 100 µM (inactive) | > 100 µM (inactive) | > 100 µM (inactive) | 8.18 µM (inactive) | > 100 µM (inactive) | > 100 µM (inactive) | –
2 | C=C[C@]1(C)CCC2=C(CCC3C2(C)CCC[C@@]3(C)COC(C)=O)C1 (stereo not given in full) | 19.7 µM (inactive) | 18.6 µM (inactive) | 16.8 | 19.1 µM (inactive) | 18.2 µM (inactive) | 19.7 µM (inactive) | 17.3 µM (inactive) | 16.3 µM (inactive) | 25.2 µM (inactive) | 19.3 µM (inactive) | 14.7 µM (inactive) | 18.6 µM (inactive) | 20.9 µM (inactive) | 16.9 µM (inactive) | 18.2 µM (inactive) | 19.9 µM (inactive) | 17.6 µM (inactive)
3 | O=C1c2ccccc2NC1(c1ccccc1)c1c(-c2ccccc2)[nH]c2ccccc12 (stereo not given) | 8.99 µM (inactive) | 3.65 µM (inactive) | 13.4 | 24.9 µM (inactive) | – | 5.04 µM (inactive) | 18.2 µM (inactive) | 6.12 µM (inactive) | 44 µM (inactive) | 51.9 µM (inactive) | 2.91 µM (inactive) | – | > 100 µM (inactive) | – | – | 44 µM (inactive) | 6.3 µM (inactive)
4 | NCCCN(CCCN)CCCNCc1c2ccccc2c(CNCCCN(CCCN)CCCN)c2ccccc12 | 17.2 µM (inactive) | 35.2 µM (inactive) | 14.4 | 12.4 µM (inactive) | 72.1 µM (inactive) | 11.6 µM (inactive) | 11.4 µM (inactive) | 8.09 µM (inactive) | 13.7 µM (inactive) | 13.3 µM (inactive) | 26.1 µM (inactive) | 19.1 µM (inactive) | 14.7 µM (inactive) | 4.6 µM (inactive) | 42 µM (inactive) | 17.1 µM (inactive) | > 100 µM (inactive)
5 | O=C(Nc1ccccc1-c1nn(CO)c(=S)n(CO)c1=O)C(F)(F)F | > 100 µM (inactive) | > 100 µM (inactive) | – | > 100 µM (inactive) | > 100 µM (inactive) | – | > 100 µM (inactive) | > 100 µM (inactive) | – | > 100 µM (inactive) | > 100 µM (inactive) | > 100 µM (inactive) | > 100 µM (inactive) | 31.8 µM (inactive) | > 100 µM (inactive) | > 100 µM (inactive) | > 100 µM (inactive)
6 | O=C1C(O)=C(CN(CCCl)CCCl)C(=O)c2ccccc21 | > 100 µM (inactive) | 35.6 µM (inactive) | 31 | 76.9 µM (inactive) | – | 31 µM (inactive) | 28.2 µM (inactive) | – | – | 53.2 µM (inactive) | 29.3 µM (inactive) | – | 34 µM (inactive) | 52.6 µM (inactive) | 76.9 µM (inactive) | > 100 µM (inactive) | 42.3 µM (inactive)
7 | CC(C)C(Sc1nc(-c2ccccc2)c(-c2ccccc2)[nH]1)C(=O)N/N=C/c1ccc([N+](=O)[O-])cc1 (stereo not given) | 16 µM (inactive) | 1.12 µM (inactive) | 12.5 | 29.1 µM (inactive) | 17.9 µM (inactive) | 13.6 µM (inactive) | 14.3 µM (inactive) | 11.3 µM (inactive) | 12.1 µM (inactive) | 14.3 µM (inactive) | 1.93 µM (inactive) | 11.6 µM (inactive) | 20.5 µM (inactive) | 9.23 µM (inactive) | 20.1 µM (inactive) | 16.2 µM (inactive) | 4.05 µM (inactive)
8 | CC(C)=CC(C(O)c1ccccc1)S(=O)(=O)c1nccn1C (stereo not given) | > 100 µM (inactive) | > 100 µM (inactive) | > 100 | > 100 µM (inactive) | > 100 µM (inactive) | > 100 µM (inactive) | > 100 µM (inactive) | > 100 µM (inactive) | > 100 µM (inactive) | > 100 µM (inactive) | > 100 µM (inactive) | > 100 µM (inactive) | > 100 µM (inactive) | > 100 µM (inactive) | > 100 µM (inactive) | > 100 µM (inactive) | > 100 µM (inactive)
9 | COc1c2c(cc3nc4ccccc4nc13)CCC(C(C)(C)O)C2 (stereo not given) | > 100 µM (inactive) | 73.6 µM (inactive) | > 100 | > 100 µM (inactive) | > 100 µM (inactive) | 26.4 µM (inactive) | > 100 µM (inactive) | 69 µM (inactive) | > 100 µM (inactive) | > 100 µM (inactive) | 32.4 µM (inactive) | > 100 µM (inactive) | > 100 µM (inactive) | 45.1 µM (inactive) | > 100 µM (inactive) | > 100 µM (inactive) | 45.1 µM (inactive)
10 | COC12CCC(=O)C=C1c1ccccc1N2C(C)=O (stereo not given) | > 100 µM (inactive) | > 100 µM (inactive) | > 100 | > 100 µM (inactive) | – | > 100 µM (inactive) | > 100 µM (inactive) | > 100 µM (inactive) | > 100 µM (inactive) | > 100 µM (inactive) | > 100 µM (inactive) | – | > 100 µM (inactive) | – | – | > 100 µM (inactive) | > 100 µM (inactive)
11 | Cc1nn(C)cc1P(=S)(c1ccccc1)c1ccccc1 | > 100 µM (inactive) | 22.5 µM (inactive) | 32.4 | 54.3 µM (inactive) | – | 18.6 µM (inactive) | > 100 µM (inactive) | 48.5 µM (inactive) | 97.1 µM (inactive) | 51.9 µM (inactive) | 30.3 µM (inactive) | 30.3 µM (inactive) | > 100 µM (inactive) | > 100 µM (inactive) | > 100 µM (inactive) | > 100 µM (inactive) | 31.8 µM (inactive)
12 | O=C1OC(c2ccccc2)=N/C1=C/C=C/c1ccco1 | > 100 µM (inactive) | > 100 µM (inactive) | > 100 | > 100 µM (inactive) | – | – | > 100 µM (inactive) | > 100 µM (inactive) | – | > 100 µM (inactive) | > 100 µM (inactive) | – | > 100 µM (inactive) | > 100 µM (inactive) | > 100 µM (inactive) | > 100 µM (inactive) | > 100 µM (inactive)
13 | COc1cc(C2c3cc4c(cc3[C@@H](OCCN(C)C)C3COC(=O)[C@H]23)OCO4)cc(OC)c1O (stereo not given in full) | 2.07 µM (inactive) | < 0.01 µM (active) | 0.971 | 0.583 µM (active) | 0.0394 µM (active) | 0.036 µM (active) | 0.139 µM (active) | 2.85 µM (inactive) | 1.68 µM (inactive) | 0.579 µM (active) | 0.0165 µM (active) | 0.145 µM (active) | 0.164 µM (active) | 0.183 µM (active) | 0.771 µM (active) | 0.239 µM (active) | 0.0419 µM (active)
14 | O=C1c2c(nc3ccccc3c2-c2ccccc2)CN1Nc1ccccc1 | > 100 µM (inactive) | > 100 µM (inactive) | – | > 100 µM (inactive) | > 100 µM (inactive) | 45.3 µM (inactive) | > 100 µM (inactive) | > 100 µM (inactive) | > 100 µM (inactive) | > 100 µM (inactive) | > 100 µM (inactive) | > 100 µM (inactive) | – | > 100 µM (inactive) | > 100 µM (inactive) | > 100 µM (inactive) | > 100 µM (inactive)
15 | CCCCCCCCCc1cc(=O)c2ccc(O)cc2o1 | 22.3 µM (inactive) | 24.3 µM (inactive) | – | 27.1 µM (inactive) | 12.6 µM (inactive) | 11.6 µM (inactive) | 39.8 µM (inactive) | 51.4 µM (inactive) | 65.3 µM (inactive) | 67.6 µM (inactive) | 23.6 µM (inactive) | 40.2 µM (inactive) | 44.4 µM (inactive) | 43.5 µM (inactive) | > 100 µM (inactive) | 86.5 µM (inactive) | 16.9 µM (inactive)
16 | COc1c(Cl)c2c(c(OC)c1OC)-c1ccc(OC)c(=O)c(Cl)c1C(NC(C)=O)CC2 (stereo not given) | 27.1 µM (inactive) | 0.444 µM (active) | 0.356 | 0.353 µM (active) | 0.316 µM (active) | 0.169 µM (active) | 0.308 µM (active) | 0.194 µM (active) | 0.14 µM (active) | 0.12 µM (active) | 0.345 µM (active) | 0.296 µM (active) | 0.148 µM (active) | 0.141 µM (active) | – | 0.34 µM (active) | 0.305 µM (active)
17 | CC(C)N1C(C)[C@@H](c2ccccc2)O[P@@]1(=O)CC1=CCCCC1 (stereo not given in full) | – | 69.5 µM (inactive) | > 100 | > 100 µM (inactive) | > 100 µM (inactive) | 24.1 µM (inactive) | > 100 µM (inactive) | > 100 µM (inactive) | > 100 µM (inactive) | > 100 µM (inactive) | 80.7 µM (inactive) | > 100 µM (inactive) | > 100 µM (inactive) | 55.6 µM (inactive) | > 100 µM (inactive) | > 100 µM (inactive) | 48.5 µM (inactive)
18 | CCCCN(C)CC(C(C)=O)C(c1ccccc1)c1c(O)c2ccccc2oc1=O (stereo not given) | > 100 µM (inactive) | > 100 µM (inactive) | > 100 | > 100 µM (inactive) | > 100 µM (inactive) | > 100 µM (inactive) | > 100 µM (inactive) | > 100 µM (inactive) | > 100 µM (inactive) | > 100 µM (inactive) | > 100 µM (inactive) | > 100 µM (inactive) | > 100 µM (inactive) | > 100 µM (inactive) | > 100 µM (inactive) | > 100 µM (inactive) | > 100 µM (inactive)
